The source of these data is EP4696689A1, “SALT FORM AND CRYSTAL FORM OF CHIRAL HETEROCYCLIC COMPOUND HAVING HEDGEHOG PATHWAY ANTAGONIST ACTIVITY” (Suzhou Kintor Pharmaceuticals, Inc., priority 2023, dated 2024).

The conditions of series [1]: rats, P.O., 10 mg/kg; data from WO2018006756A1 (B1); cited from earlier work.
The nature of series [2]: hygroscopicity evaluation by dynamic vapor sorption (DVS). The format is physicochemical. Here is the method:
The DVS curves were collected on a DVS Intrinsic from SMS (Surface Measurement Systems).The relative humidity at 25°C was corrected with the deliquescence points of LiCl, Mg (NO3)2 and KCl.

The nature of series [3]: solid state stability (XRPD, HPLC, chiral purity). The format is physicochemical. The procedure:
The purity test, the dynamic solubility and the stability test are tested by the Agilent 1260/1100 high performance liquid chromatograph, and the analysis conditions and chiral purity test analysis conditions of the high performance liquid chromatography test are respectively as follows.
After placing the amorphous free base and fumarate crystal form F of the compound of formula (I) at 25°C/60% RH and 40°C/75% RH for 1 week, the physical and chemical stability of the sample is detected by XRPD and HPLC (at the same time the chiral purity of the sample is tested). […] Table 4-2 Solid Stability Evaluation Summary

Series [4] is described as follows: dynamic solubility in water and three biological solvents. Conditions: 37 °C, thermodynamic from solid. It counts as physicochemical. Here is the method:
Finally, the volume is fixed with purified water.
0.17 g of sodium dihydrogen phosphate (NaH2PO4, anhydrous), 0.021 g of sodium hydroxide and 0.31 g of sodium chloride were weighed into a 50 mL volumetric flask respectively, about 48 mL of purified water was added for dissolution, the pH was adjusted to exactly 6.5 with 1M hydrochloric acid or 1M sodium hydroxide, and the volume was fixed with purified water. 0.11 g of SIF powder was then added, stirred and sonicated to completely dissolve the powder. The solution can be used only after being placed at room temperature for two hours to reach equilibrium.
0.41 mL of glacial acetic acid, 0.20 g of sodium hydroxide and 0.59 g of sodium chloride were weighed into a 50 mL volumetric flask respectively, and about 48 mL of purified water was added for dissolution, the pH was adjusted to exactly 5.0 with 1M hydrochloric acid or 1M sodium hydroxide, and the volume was fixed with purified water. 0.56 g of SIF powder was then added, stirred and sonicated to completely dissolve the powder. The solution can be used only after being placed at room temperature for two hours to reach equilibrium.
The solubility results of the two samples in SGF, FASSIT and FeSSIF are similar. […] Table 4-1 Summary of the dynamic solubility test results

For series [5], the system named is primary extracted medulloblastoma cells. The experiment in a line: antitumor efficacy against medulloblastoma, subcutaneous xenograft model.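 Also: male CB-17/SCID mice bearing subcutaneous tumors, randomized at 150-300 mm^3, tumor volume from caliper diameters as 0.5 × longest × shortest squared, measured twice weekly.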 Conditions: 10 mg/kg i.g. BID, 17 days. It counts as in vivo, CB-17/SCID mice.
Protocol: 60 male CB-17/SCID mice (aged 6-8 weeks) were purchased from Shanghai SLAC Laboratory Animal Co., Ltd. Animals were housed in individually ventilated cages (IVCs), with five mice per cage. Housing conditions were as follows: temperature was maintained at 20-26°C; humidity was 30-70%; 12 hours of light and 12 hours of darkness.
(§1) 30 mice with uniform tumor sizes (Coefficient of Variation, CV < 30%, CV = Standard Deviation / Mean) were selected from this group. These mice were selected and randomly divided into five experimental groups according to Table 6-2, with six mice in each group and one group per cage. Drug administration began the day after grouping and lasted for 17 days with a frequency of twice daily (BID). The drug was discontinued after 17 days to observe tumor changes.
(§2) During routine examinations, animals were monitored for tumor growth, activity level, food intake, water consumption, weight gain or loss, eye, fur, and any other abnormal behaviors. Animal deaths and clinical abnormalities were recorded. Tumor volume (TV) was measured twice weekly using calipers and calculated using the formula: TV = 0.5a × b^2, wherein a is the longest diameter of the tumor and b is the shortest diameter. Body weight was recorded twice weekly, concurrently with tumor volume measurements.
(§3) If the animals' weight subsequently recovered to within a 10% loss compared to baseline, whether to continue the administration was based on the animals' condition. The in vivo experimental for an individual animal or the entire group would be terminated under the following conditions. The animals will be euthanized before death or coma. • ➢ If the animals' health condition deteriorated continuously, causing persistent suffering and is unable to eat or drink. • ➢ If the animal became emaciated, with a body weight loss exceeding 20% compared to the initial administration. • ➢ If the tumor volume of an individual mouse exceeded 3000 mm^3 or the mean tumor volume of the entire group exceeded 2000 mm^3.
All data were analyzed using GraphPad Prism 5.0. P value < 0.05 was considered statistically significant.
A further series is described as follows: in vivo. Conditions: male, C57, mouse, plasma, po, 10 mg/kg.
The conditions of series [6]: SCID tumor-bearing mice, i.g. BID × 3 days.
Protocol: During routine examinations, animals were monitored for tumor growth, activity level, food intake, water consumption, weight gain or loss, eye, fur, and any other abnormal behaviors. Animal deaths and clinical abnormalities were recorded.
The subject of the next series is Gli1 Gene. The experiment in a line: Gli1 mRNA expression in tumor tissues (RT-qPCR), Shh signaling pathway analysis. The format is in vivo, CB-17/SCID mice. Conditions: 10 mg/kg i.g. BID × 3 days; tumor tissue 2 hours after last administration; GAPDH internal reference. An excerpt: Table 7-1 The Grouping and Drug Administration Plan
Primary tumor cells were extracted from Math1-Cre/Ptch1 ^C/C mice with spontaneous medulloblastoma and subcutaneously inoculated into CB-17/SCID mice to establish a xenograft model of medulloblastoma.
CB-17/SCID mice were subcutaneously injected with primary extracted medulloblastoma cells. After 3-4 weeks, a subset of mice developed tumors with volumes ranging from 150 to 300 mm^3.
From these mice, 25 tumor-bearing mice with uniform tumor sizes (with CV < 30%, CV = SD/Mean) were selected and randomly divided into 5 experimental groups (Vehicle, GDC-0449-10 mg/kg, Compound A-10 mg/kg, Compound A-3 mg/kg, Compound A-1 mg/kg) according to Table 2. Each group consisted of 5 mice per cage. Administration began on the day after grouping. The administration period was 3 days, with a frequency of BID. Tumor tissues were collected 2 hours after the last administration, and the mRNA expression level of the Glil gene in the tumor tissues was analyzed by RT-qPCR.
The tumor tissues were lysed by RNAiso Plius (TaKaRa, 108-95-2) to extractand RNA was then extracted using chloroform extraction and isopropanol precipitation methods. Subsequently, the mRNA level of the Glil gene was detected using a real-time fluorescence quantitative PCR instrument (ABI 7500), with GAPDH serving as the internal reference for quantitative analysis.
Experimental data in all tables are presented as "mean ± standard deviation" with error bars in figures representing standard error of the mean (SEM). Student's t-test was used to compare statistical differences in Glil gene mRNA expression levels in tumor tissues among treatment groups. All data were analyzed using GraphPad Prism 5.0. P-value <0.05 was considered statistically significant. ***, P<0.001; ##, P<0.01.
Glil is a target gene of the Hedgehog signaling pathway, and its mRNA expression level reflects the activation status of the hedgehog signaling pathway.

Series [7] can be described thus: body weight of tumor-bearing mice during treatment.
Description: as §1, §2, §3
Where [8] appears, read: pH 1.8, simulated gastric fluid.

The term solubility denotes the concentration that dissolves in the medium under given conditions. A word on the AUC(0-inf): it is total exposure, with the tail of the curve extrapolated. For orientation: AUC(0-t) means the area under the concentration-time curve up to a stated or last time point. Lower therefore signals less exposure. For orientation: Cmax means the maximum level reached in the sampled fluid or tissue. As a reminder, the MRT is the average time that molecules of a dose stay in the body. The term Tmax denotes the time from dosing to the highest level. A word on the half-life: it is how long it takes for the measured level to halve.

Protocol for in vivo: The collected plasma samples were subjected to a protein precipitation method by using an organic reagent according to the following method to extract test article in the plasma, and the extracted sample was subjected to quantitative concentration analysis through the LC-MS/MS.
Meanwhile, an accompanying standard curve and quality control samples were prepared for quantitative analysis.
The fumarate salt form F of the compound of formula (I) Group: 50 µL of plasma at each time point was taken, 400 µL of acetonitrile was added, vortex mixing and centrifugation was performed at 10000 rpm for 10 min, and a 200 µL supernatant for LC-MS/MS analysis was taken. Meanwhile, an accompanying standard curve and quality control samples were prepared for quantitative analysis.
According to the plasma drug concentration data obtained through analysis, the main pharmacokinetic parameters were calculated according to the non-atrioventricular model by using Kinetic software (Version 5.0).

Consider `Cc1cnc(-c2cc(N3CCc4nc(N5CCC(O)CC5)ncc4[C@H]3C)ncc2Cl)c(C)c1` [compound of formula (I), (R)-1-(6-(5'-chloro-3,5-dimethyl-[2,4'-bipyridin]-2'-yl)-5-methyl-5,6,7,8-tetrahydropyrido[4,3-d]pyrimidin-2-yl)piperidin-4-ol], for which the F% in series [1] was 100%. Further, the “crystal transformation or crystal form change after the DVS test (XRPD)” value in [2] (0% RH-95% RH-0% RH, 25°C) is listed as “no crystal transformation or crystal form change”. In series [2] (25°C/80%RH), the “Water adsorption (25°C/80%RH)” value worked out at 2.4 and the moisture adsorption is reported as 2.4%. Besides, in [3] (25°C/60%RH_1w), the “Chiral purity (%)” value is on record as 98.7%, the “Purity (Area%)” value is listed as 99.0 Area% and the “Purity/Initial purity (%)” value is 100.0%. In series [3] (40°C/75%RH_1w), the “Chiral purity (%)” value amounted to 98.7%, the “Purity (Area%)” value amounted to 98.9 Area% and the “Purity/Initial purity (%)” value turned out to be 99.9%. In series [3] (Start), the “Chiral purity (%)” value worked out at 98.5% and the “Purity (Area%)” value was determined as 99.0 Area%. Besides, the “Solid State Stability” value in [3] (summary, 25°C/60% RH and 40°C/75% RH for 1 week) was “good physical and chemical stability”. For the same compound, in series [4] (setting [8]), the solubility at 1 h was 4100 µg/mL, the solubility at 2 h was 3900 µg/mL, the solubility at 4 h is 4000 µg/mL and the solubility at 24 h was 3900 µg/mL. In series [4] (pH 5, fessif), this compound gave a solubility at 1 h of 3000 µg/mL, a solubility at 2 h of 3000 µg/mL, a solubility at 4 h of 2900 µg/mL and a solubility at 24 h of 2900 µg/mL. In series [4] (pH 6.5, fassif), this compound returned a solubility at 1 h of 210 µg/mL, a solubility at 2 h of 200 µg/mL, a solubility at 4 h of 240 µg/mL and a solubility at 24 h of 220 µg/mL. Further, in [4] (water), the solubility at 1 h came to 13 µg/mL, the solubility at 2 h stood at 16 µg/mL, the solubility at 4 h is 18 µg/mL and the solubility at 24 h came to 30 µg/mL.
`CS(=O)(=O)c1ccc(C(=O)Nc2ccc(Cl)c(-c3ccccn3)c2)c(Cl)c1` [GDC-0449, reference compound]: in [5], the “T/C (%)” value turned out to be 32.49%. Moreover, in series [5] (TGI = [1 - RTV(treatment group) / RTV(control group)] × 100%), the “TGI (%)” value was 67.51%. Besides, in the series “in vivo”, the AUC(0-inf) came to 6650 ng·h/mL, the AUC(0-t) was 6040 ng·h/mL, the Cmax came out at 1270 ng/mL and the MRT turned out to be 8.33 h. For the same compound, in “in vivo”, the Tmax stood at 0.63 h and the half-life is 8.43 h. Besides, the “abnormal behaviors or animal deaths during the administration period” value in series [6] is recorded as “no abnormal behaviors or animal deaths”. The “mRNA Expression Level of Glil Gene” value in the series with Gli1 Gene came out at 0.194 ± 0.074. The “Mean Body Weight at Day 0” value in series [7] (10 mg/kg group, before treatment) is 23.7 ± 2.1 g. Further, in series [7] (10 mg/kg i.g. BID, 17 days), the “Body Weight Change Rate (%)” value was 9.3% and the “Mean Body Weight at Dosing Endpoint” value came to 25.9 ± 2.0 g. Moreover, the “impact on the body weight of tumor-bearing mice during the treatment period” value in series [7] (administered doses, i.g. BID × 17 days) is “no significant impact”.
